Experimental data reported in US10744205B2, “Antibody drug conjugates of kinesin spindel protein (KSP) inhibitors with anti-CD123-antibodies” (Bayer Pharma Aktiengesellschaft, priority 2015, dated 2020).

What was measured:
[1] = test system: NCI-H292: human mucoepidermoid lung carcinoma cells; experiment: Cytotoxicity of metabolites, MTT assay, NCI-H292; type: cell-based; conditions: growth inhibition, 96 h incubation
Method: The analysis of the cytotoxic effects of the anti-CD123 ADCs and the corresponding metabolites was carried out with various cell lines:
NCI-H292: human mucoepidermoid lung carcinoma cells, ATCC-CRL-1848, standard medium: RPMI 1640 (Biochrom; # FG1215, stab. glutamine)+10% FCS (Biochrom; # S0415).
The cells were cultivated by the standard method as stated by the American Tissue Culture Collection (ATCC) or the Leibniz-Institut DSMZ-Deutsche Sammlung von Mikroorganismen und Zellkulturen GmbH (DSMZ) for the cell lines in question.
The cells were cultivated according to the standard method using the growth media listed under C-1. The test is carried out by detaching the cells with a solution of Accutase in PBS (Biochrom AG # L2143), pelleting, resuspending in culture medium, counting and sowing into a 96-well culture plate with white bottom (Costar #3610) (NCI H292: 2500 cells/well; MOLM-13: 2000 cells/well; THP-1: 8000 cells/well; KG-1: 5000 cells/well in a total volume of 100 μl). The cells were then incubated in an incubator at 37° C. and 5% carbon dioxide. After 48 h, the medium was replaced.
The antibody drug conjugates or the metabolites in 10 μl of culture medium in concentrations from 10^−5M to 10^−13M were then pipetted to the cells (in triplicate), and the assay was then incubated in an incubator at 37° C. and 5% carbon dioxide. […] To this end, the MTT reagent was incubated with the cells for 4 h, followed by lysis of the cells overnight by addition of the detergent. The dye formed was detected at 570 nm (Infinite M1000 pro, Tecan). The measured data were used to calculate the IC50 of the growth inhibition using the DRC (dose response curve).
The proliferation of cells which were not treated with test substance but were otherwise identically treated was defined as the 100% figure.
Table 2 below lists the IC50 values of representative working examples from the assay described and the corresponding cytotoxicity data (MTT assay).

KPL4 = experiment: Cytotoxicity of metabolites, MTT assay, KPL4; type: cell-based
[2] = molecular target: T1, motor domain of the human kinesin spindle protein KSP/Eg5 (Homo sapiens, UniProt P52732); experiment: Inhibition of the kinesin spindle protein KSP/Eg5 (ATPase activity, malachite green); type: biochemical; conditions: 10 nM KSP/Eg5, microtubuli, 500 μM ATP, 2 h at RT
T1 construct: The motor domain of the human kinesin spindle protein KSP/Eg5; purchased tebu-bio/Cytoskeleton Inc 027EG01-XL
T1 sequence (P52732 18-359 limits assumed): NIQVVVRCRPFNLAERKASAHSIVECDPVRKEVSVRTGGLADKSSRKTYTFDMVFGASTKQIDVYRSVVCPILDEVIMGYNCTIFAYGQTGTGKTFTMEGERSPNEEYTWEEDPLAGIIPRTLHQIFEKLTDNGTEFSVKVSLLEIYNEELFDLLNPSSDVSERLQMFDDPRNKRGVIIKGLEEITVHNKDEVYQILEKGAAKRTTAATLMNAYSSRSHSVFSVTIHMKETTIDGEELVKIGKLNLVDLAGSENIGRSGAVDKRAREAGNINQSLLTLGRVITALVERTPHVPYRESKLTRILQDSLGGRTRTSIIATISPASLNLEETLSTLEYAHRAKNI
Method: C-1b Determination of the Inhibition of the Kinesin Spindle Protein KSP/Eg5 by Selected Examples
The motor domain of the human kinesin spindle protein KSP/Eg5 (tebu-bio/Cytoskeleton Inc, No. 027EG01-XL) was incubated in a concentration of 10 nM with microtubuli (bovine or porcine, tebu-bio/Cytoskeleton Inc) stabilized with 50 μg/ml taxol (Sigma No. T7191-5MG) for 5 min at RT in 15 mM PIPES, pH 6.8 (5 mM MgCl2 and 10 mM DTT, Sigma). […] Incubation was at RT for 2 h. ATPase activity was detected by detecting the inorganic phosphate formed using malachite green (Biomol). […] The positive controls used were monastrol (Sigma, M8515-1 mg) and ispinesib (AdooQ Bioscience A10486). The individual data of the dose-activity curve are eight-fold determinations. The IC50 values are means of two independent experiments.

[3] = Cell permeability, flux assay using Caco-2 cells; type: in vitro ADME; conditions: human
Caco-2 cells = experiment: Cell permeability, flux assay using Caco-2 cells; type: in vitro ADME; conditions: Caco-2, B to A, 2 hours

Row | Molecule | IC50 [1] [nM] | IC50 (KPL4; growth inhibition) [nM] | IC50 ([1]; Homo sapiens, NCI-H292, 96 h) [nM] | IC50 (KPL4; KPL4, growth inhibition) [nM] | further results
1 | (1R,4R,27R,33R)-1-Amino-32-(3-aminopropyl)-33-[1-benzyl-4-(2,5-difluorophenyl)-1H-pyrrol-2-yl]-34,34-dimethyl-6,9,25,31-tetraoxo-13,16,19,22-tetraoxa-3,29-dithia-7,10,26,32-tetraazapentatriacontane-1,4,27-tricarboxylic acid/trifluoroacetic acid (1:2) [Example M20] | 149 | 213 | – | – | –
2 | CC(C)(C)[C@H](c1cc(-c2cc(F)ccc2F)cn1Cc1ccccc1)N(CC[C@H](N)C(=O)NCCC(=O)N[C@@H](CCC(=O)O)C(=O)O)C(=O)CO [Example M23, N-{(2S)-2-Amino-4-[{(1R)-1-[1-benzyl-4-(2,5-difluorophenyl)-1H-pyrrol-2-yl]-2,2-dimethylpropyl}(glycoloyl)amino]butanoyl}-beta-alanyl-L-glutamic acid/trifluoroacetic acid (1:1)] | – | – | ≥ 500 | ≥ 500 | –
3 | CC(C)(C)[C@H](c1cc(-c2cc(F)ccc2F)cn1Cc1ccccc1)N(CC[C@H](N)C(=O)NCCC(=O)N[C@H](CCC(=O)O)C(=O)O)C(=O)CO [Example M24, N-{(2S)-2-Amino-4-[{(1R)-1-[1-benzyl-4-(2,5-difluorophenyl)-1H-pyrrol-2-yl]-2,2-dimethylpropyl}(glycoloyl)amino]butanoyl}-beta-alanyl-D-glutamic acid/trifluoroacetic acid (1:1)] | – | – | – | ≥ 500 | –
4 | CC(C)(C)[C@H](c1cc(-c2cc(F)ccc2F)cn1Cc1ccccc1)N(CC[C@H](N)C(=O)NCCNC(=O)CN1C(=O)CC(SC[C@H](N)C(=O)O)C1=O)C(=O)CO (stereo partly drawn) [Example M1, S-[1-(2-{[2-({(2S)-2-Amino-4-[{(1R)-1-[1-benzyl-4-(2,5-difluorophenyl)-1H-pyrrol-2-yl]-2,2-dimethylpropyl}(glycoloyl)amino]butanoyl}amino)ethyl]amino}-2-oxoethyl)-2,5-dioxopyrrolidin-3-yl]-L-cysteine/trifluoroacetic acid (1:1)] | – | – | ≥ 500 | ≥ 500 | –
5 | CC(C)(C)[C@H](c1cc(-c2cc(F)ccc2F)cn1Cc1ccccc1)N(CCCN)C(=O)CSC[C@H](NC(=O)CCOCCOCCOCCOCCNC(=O)CNC(=O)[C@H](CC(=O)O)SC[C@H](N)C(=O)O)C(=O)O.O=C(O)C(F)(F)F.O=C(O)C(F)(F)F [Example M21, (2R,24S,27R)-27-Amino-2-[({2-[(3-aminopropyl){(1R)-1-[1-benzyl-4-(2,5-difluorophenyl)-1H-pyrrol-2-yl]-2,2-dimethylpropyl}amino]-2-oxoethyl}sulphanyl)methyl]-24-(carboxymethyl)-4,20,23-trioxo-7,10,13,16-tetraoxa-25-thia-3,19,22-triazaoctacosane-1,28-dioic acid trifluoroacetic acid (1:2)] | – | – | – | – | IC50 [2]: 2.31 nM; Papp B→A at 2 h ([3]; Caco-2, B to A, 2 hours): 0.05 ×10⁻⁶ cm/s; efflux ratio at 2 h ([3]; Caco-2, ratio of Papp (B-A) to Papp (A-B)): 1.5
6 | N-{(2S)-2-Amino-4-[{(1R)-1-[1-benzyl-4-(2,5-difluorophenyl)-1H-pyrrol-2-yl]-2,2-dimethyl propyl}(glycoloyl)amino]butanoyl}-L-glutamic acid/trifluoroacetic acid (1:1) [Example M25] | ≥ 500 | ≥ 500 | – | – | Papp (B-A) (Caco-2 cells): 0.81 ×10⁻⁶ cm/s
